Measured values taken from ChEMBL document CHEMBL5653631, “A Potent and Selective ULK1 Inhibitor Suppresses Autophagy and Sensitizes Cancer Cells to Nutrient Stress” (iScience, 2018).

What was measured:
[1] = biological target: Cyclin-dependent kinase 9 (Homo sapiens) (UniProt P50750); assay: Inhibition of human recombinant CDK9 at 40 nM in presence of ATP by radiometric assay relative to control
[2] = biological target: T1, Serine/threonine-protein kinase NLK (Homo sapiens) (UniProt Q9UBE8); assay: Inhibition of human recombinant NLK at 40 nM related to control ULK1
T1 sequence (whole entry): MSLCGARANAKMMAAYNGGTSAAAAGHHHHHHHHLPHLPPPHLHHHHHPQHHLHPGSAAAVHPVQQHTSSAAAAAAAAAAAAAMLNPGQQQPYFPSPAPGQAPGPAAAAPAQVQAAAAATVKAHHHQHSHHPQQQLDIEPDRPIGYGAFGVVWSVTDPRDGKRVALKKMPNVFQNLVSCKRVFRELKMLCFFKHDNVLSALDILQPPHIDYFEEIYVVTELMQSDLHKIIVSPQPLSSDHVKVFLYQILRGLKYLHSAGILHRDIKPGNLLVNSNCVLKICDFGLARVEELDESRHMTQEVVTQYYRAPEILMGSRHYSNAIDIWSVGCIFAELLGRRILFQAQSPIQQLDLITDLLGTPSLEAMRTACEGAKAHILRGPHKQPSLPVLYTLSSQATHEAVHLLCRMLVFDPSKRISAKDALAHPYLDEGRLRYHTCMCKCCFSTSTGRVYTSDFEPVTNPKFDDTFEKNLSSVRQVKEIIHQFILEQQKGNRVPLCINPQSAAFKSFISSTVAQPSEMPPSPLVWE

[3] = biological target: Serine/threonine-protein kinase Chk2 (Homo sapiens) (UniProt O96017); assay: Inhibition of human recombinant CHK2 at 500 nM in presence of ATP by radiometric assay relative to control
Sequence of Serine/threonine-protein kinase Chk2 (Homo sapiens) (O96017 whole entry, canonical isoform): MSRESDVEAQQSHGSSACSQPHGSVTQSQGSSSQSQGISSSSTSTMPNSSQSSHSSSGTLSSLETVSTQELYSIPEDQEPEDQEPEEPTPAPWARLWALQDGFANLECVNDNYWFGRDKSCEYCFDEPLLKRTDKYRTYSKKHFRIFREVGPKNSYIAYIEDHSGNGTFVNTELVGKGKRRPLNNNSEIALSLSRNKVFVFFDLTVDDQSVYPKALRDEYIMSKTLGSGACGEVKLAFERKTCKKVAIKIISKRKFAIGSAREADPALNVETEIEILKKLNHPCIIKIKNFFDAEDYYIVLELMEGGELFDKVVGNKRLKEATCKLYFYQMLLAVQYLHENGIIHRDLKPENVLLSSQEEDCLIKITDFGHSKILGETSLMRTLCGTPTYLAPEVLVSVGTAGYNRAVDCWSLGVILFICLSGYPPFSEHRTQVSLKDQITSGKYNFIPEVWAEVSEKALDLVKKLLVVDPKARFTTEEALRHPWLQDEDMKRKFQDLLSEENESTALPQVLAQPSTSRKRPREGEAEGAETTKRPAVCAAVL

[4] = biological target: Phosphorylase b kinase gamma catalytic chain, skeletal muscle/heart isoform (Homo sapiens) (UniProt Q16816); assay: Inhibition of human recombinant PHKg1 at 500 nM related to control ULK1
Sequence of Phosphorylase b kinase gamma catalytic chain, skeletal muscle/heart isoform (Homo sapiens) (Q16816 whole entry, looked up, canonical isoform): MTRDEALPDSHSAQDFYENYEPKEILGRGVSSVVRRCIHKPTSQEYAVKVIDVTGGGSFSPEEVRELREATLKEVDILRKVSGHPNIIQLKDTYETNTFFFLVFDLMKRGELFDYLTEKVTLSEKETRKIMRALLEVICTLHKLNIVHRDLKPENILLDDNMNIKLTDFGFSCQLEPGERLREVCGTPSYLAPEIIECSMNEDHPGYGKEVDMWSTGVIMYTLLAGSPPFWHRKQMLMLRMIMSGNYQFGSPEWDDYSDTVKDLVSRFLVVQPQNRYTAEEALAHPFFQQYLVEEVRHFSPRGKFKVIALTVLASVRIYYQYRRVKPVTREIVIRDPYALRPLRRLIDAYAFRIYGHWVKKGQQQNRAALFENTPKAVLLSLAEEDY

[5] = biological target: T2, Serine/threonine-protein kinase TBK1 (Homo sapiens) (UniProt Q9UHD2); assay: Inhibition of human recombinant TBK1 at 15 nM in presence of ATP by radiometric assay relative to control
T2 sequence (whole entry): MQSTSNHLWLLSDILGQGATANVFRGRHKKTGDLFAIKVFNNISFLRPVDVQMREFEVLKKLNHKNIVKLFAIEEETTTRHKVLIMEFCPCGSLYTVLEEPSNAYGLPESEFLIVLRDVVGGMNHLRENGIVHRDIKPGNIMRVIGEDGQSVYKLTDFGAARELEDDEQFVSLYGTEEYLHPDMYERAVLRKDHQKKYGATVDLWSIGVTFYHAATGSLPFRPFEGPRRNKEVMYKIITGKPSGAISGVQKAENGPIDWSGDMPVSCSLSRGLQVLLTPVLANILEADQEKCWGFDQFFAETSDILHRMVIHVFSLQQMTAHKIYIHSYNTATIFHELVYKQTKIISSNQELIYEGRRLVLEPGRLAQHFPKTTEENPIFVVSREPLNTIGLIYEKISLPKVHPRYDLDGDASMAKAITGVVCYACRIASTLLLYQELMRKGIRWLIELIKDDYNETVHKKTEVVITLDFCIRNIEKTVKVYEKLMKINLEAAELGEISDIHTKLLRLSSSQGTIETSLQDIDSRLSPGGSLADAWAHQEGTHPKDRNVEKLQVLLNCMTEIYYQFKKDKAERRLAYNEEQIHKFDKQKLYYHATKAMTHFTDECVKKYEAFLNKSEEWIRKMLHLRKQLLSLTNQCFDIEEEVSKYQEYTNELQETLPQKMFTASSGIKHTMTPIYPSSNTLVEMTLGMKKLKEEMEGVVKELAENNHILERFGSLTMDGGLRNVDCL

[6] = biological target: Mitogen-activated protein kinase kinase kinase 20 (Homo sapiens) (UniProt Q9NYL2); assay: Inhibition of human recombinant ZAK at 15 nM in presence of ATP by radiometric assay relative to control
Sequence of Mitogen-activated protein kinase kinase kinase 20 (Homo sapiens) (Q9NYL2 2-800 limits assumed): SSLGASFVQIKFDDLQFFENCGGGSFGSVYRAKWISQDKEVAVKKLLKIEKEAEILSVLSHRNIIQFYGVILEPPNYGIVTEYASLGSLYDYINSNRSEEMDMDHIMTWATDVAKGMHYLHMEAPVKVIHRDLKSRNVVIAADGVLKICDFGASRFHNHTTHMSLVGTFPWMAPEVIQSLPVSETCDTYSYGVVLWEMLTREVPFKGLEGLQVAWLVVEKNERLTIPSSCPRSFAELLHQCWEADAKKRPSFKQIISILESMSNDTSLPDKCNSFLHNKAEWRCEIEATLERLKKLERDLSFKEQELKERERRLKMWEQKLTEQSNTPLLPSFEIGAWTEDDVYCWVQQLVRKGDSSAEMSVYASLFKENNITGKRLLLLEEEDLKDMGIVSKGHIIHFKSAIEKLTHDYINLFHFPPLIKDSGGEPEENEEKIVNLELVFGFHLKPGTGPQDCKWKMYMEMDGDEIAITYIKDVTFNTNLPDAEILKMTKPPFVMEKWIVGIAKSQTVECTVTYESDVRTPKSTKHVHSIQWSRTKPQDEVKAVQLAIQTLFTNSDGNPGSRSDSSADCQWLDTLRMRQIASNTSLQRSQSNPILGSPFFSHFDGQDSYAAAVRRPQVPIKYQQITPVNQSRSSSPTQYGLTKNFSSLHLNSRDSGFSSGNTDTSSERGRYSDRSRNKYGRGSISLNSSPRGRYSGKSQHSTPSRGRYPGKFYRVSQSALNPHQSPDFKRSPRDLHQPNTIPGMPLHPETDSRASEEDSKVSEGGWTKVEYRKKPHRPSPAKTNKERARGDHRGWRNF

[7] = biological target: T3, Mitogen-activated protein kinase kinase kinase kinase 2 (Homo sapiens) (UniProt Q12851); assay: Inhibition of human recombinant GCK at 15 nM related to control ULK1
T3 sequence (whole entry): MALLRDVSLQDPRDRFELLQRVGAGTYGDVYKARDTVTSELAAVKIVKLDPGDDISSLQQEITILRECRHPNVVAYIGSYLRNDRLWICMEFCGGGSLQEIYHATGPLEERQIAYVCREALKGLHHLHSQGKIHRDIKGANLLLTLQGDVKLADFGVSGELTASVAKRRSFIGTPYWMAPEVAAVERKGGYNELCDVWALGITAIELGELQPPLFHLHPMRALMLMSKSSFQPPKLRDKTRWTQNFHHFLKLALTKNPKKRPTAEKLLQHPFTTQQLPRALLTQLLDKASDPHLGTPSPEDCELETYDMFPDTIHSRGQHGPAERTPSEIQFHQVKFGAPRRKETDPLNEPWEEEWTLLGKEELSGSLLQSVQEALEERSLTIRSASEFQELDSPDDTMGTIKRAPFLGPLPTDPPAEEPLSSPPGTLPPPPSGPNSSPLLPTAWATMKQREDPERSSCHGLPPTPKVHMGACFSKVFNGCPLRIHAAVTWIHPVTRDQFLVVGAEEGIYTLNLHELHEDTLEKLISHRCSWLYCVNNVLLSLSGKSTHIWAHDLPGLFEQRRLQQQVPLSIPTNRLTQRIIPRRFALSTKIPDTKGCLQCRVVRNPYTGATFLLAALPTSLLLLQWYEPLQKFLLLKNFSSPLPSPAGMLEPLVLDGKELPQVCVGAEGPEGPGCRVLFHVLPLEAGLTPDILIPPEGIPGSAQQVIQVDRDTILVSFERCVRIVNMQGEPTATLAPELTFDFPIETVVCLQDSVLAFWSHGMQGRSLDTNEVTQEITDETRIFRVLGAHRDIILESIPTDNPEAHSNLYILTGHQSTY

[8] = biological target: T4, Mitogen-activated protein kinase 12 (Homo sapiens) (UniProt P53778); assay: Inhibition of human recombinant p38gamma at 15 nM related to control ULK1
T4 sequence (whole entry): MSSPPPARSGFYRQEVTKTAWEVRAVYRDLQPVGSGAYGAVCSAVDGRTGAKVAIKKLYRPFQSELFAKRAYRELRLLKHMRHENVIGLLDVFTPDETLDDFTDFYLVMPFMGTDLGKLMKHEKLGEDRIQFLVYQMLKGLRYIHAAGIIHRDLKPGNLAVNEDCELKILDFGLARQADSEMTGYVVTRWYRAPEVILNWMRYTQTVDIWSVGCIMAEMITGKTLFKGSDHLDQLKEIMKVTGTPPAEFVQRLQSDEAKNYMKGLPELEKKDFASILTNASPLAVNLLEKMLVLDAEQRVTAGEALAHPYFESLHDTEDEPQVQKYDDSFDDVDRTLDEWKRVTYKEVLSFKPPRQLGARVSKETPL

[9] = biological target: Myosin light chain kinase, smooth muscle (Homo sapiens) (UniProt Q15746); assay: Inhibition of human recombinant smMLCK at 15 nM related to control ULK1
Sequence of Myosin light chain kinase, smooth muscle (Homo sapiens) (Q15746 whole entry): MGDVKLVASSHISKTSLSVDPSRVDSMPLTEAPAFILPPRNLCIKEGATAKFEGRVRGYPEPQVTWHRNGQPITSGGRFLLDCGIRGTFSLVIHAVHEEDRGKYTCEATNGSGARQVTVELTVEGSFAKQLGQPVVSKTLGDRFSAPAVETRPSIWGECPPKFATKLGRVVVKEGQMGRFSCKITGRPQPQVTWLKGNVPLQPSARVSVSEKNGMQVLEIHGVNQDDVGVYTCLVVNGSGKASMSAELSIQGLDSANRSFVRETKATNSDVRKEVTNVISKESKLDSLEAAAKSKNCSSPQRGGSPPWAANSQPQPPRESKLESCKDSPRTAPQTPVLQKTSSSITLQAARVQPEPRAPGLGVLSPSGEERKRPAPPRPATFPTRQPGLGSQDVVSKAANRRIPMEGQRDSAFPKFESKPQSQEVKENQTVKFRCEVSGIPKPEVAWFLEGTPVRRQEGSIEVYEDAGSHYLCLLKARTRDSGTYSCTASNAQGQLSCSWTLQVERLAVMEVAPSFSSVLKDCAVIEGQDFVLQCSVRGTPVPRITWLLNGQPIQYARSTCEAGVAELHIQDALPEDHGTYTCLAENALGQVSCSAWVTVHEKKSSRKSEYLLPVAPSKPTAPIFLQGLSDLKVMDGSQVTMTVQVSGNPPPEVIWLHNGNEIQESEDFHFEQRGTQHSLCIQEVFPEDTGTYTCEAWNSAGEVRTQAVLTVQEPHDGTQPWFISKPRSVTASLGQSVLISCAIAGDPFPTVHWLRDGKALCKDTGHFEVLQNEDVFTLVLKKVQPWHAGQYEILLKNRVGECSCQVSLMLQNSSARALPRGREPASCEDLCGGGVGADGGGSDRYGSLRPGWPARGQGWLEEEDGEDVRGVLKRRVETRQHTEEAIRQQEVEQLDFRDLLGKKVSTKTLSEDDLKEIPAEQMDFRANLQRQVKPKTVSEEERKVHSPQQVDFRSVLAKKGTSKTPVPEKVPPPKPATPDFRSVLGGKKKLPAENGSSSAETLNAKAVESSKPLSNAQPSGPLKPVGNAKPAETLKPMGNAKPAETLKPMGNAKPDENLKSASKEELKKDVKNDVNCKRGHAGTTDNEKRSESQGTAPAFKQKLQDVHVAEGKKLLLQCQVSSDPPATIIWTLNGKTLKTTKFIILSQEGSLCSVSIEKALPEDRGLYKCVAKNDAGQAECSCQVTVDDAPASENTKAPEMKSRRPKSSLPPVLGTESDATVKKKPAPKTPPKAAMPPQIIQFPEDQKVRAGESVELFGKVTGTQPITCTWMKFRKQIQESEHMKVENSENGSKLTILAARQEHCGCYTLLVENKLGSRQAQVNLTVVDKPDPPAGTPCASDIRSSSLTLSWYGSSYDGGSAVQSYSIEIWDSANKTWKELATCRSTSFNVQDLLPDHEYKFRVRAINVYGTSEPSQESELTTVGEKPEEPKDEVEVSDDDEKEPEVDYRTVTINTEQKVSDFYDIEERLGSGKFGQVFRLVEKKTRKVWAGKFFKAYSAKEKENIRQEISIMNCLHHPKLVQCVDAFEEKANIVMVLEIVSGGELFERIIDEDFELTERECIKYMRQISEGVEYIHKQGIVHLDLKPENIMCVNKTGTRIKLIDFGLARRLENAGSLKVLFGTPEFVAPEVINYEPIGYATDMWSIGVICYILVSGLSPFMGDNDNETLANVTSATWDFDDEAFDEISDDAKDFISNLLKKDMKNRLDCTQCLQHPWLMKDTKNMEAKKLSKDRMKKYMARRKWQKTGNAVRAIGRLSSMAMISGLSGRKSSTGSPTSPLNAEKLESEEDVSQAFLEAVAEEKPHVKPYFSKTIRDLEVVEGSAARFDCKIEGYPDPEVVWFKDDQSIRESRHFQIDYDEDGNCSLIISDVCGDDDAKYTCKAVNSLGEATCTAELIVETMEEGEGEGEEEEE

Sequence of Cyclin-dependent kinase 9 (Homo sapiens) (P50750 whole entry): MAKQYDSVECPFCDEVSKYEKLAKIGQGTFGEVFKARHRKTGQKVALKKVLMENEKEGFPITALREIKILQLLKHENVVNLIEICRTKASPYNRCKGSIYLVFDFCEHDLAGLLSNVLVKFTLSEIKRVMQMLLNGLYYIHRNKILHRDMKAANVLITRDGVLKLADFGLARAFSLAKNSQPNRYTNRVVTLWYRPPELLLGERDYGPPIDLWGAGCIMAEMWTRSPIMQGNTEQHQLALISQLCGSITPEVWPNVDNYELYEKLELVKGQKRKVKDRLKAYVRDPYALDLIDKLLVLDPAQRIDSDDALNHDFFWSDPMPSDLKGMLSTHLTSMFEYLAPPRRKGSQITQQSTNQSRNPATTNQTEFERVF

Work on `O=C(N[C@@H](C1CC1)C(F)(F)F)c1cc(-c2cnn3cc(-c4ccc(F)cc4)cnc23)cs1` yielded an inhibition [1] of 0% and a fold change (FC) [2] of 0.64.

Work on `CNC(=O)c1ccccc1Oc1nc(Nc2cc(OC)c(OC)c(OC)c2)ncc1Br` yielded an inhibition [3] of 0% and a fold change (FC) [4] of 0.31.

Compound `CC(C)[C@H](NC(=O)c1cc(-c2cnn3cc(-c4ccc(OCCN5CCCCC5)cc4)cnc23)cs1)C(F)(F)F` has an inhibition [5] of 79%, an inhibition [6] of 26% and a fold change (FC) [7] of 0.39. It also gave a fold change (FC) [8] of 0.06 and a fold change (FC) [9] of 0.
